Measured values reported in patent publication US12643871B2, “Aryl formamide compound containing chiral sulfur oxide or salt thereof, preparation method, herbicidal composition and use thereof” (Qingdao Kingagroot Chemical Compound Co., Ltd., priority 2019, dated 2026).

What was measured:
Experiment in all cases: Weeding effect in post-emergence stage
Assay type in all cases: in vivo
Conditions in all cases: 250 g/ha; 2 leaf stage; 15 days after application; fresh weight control rate
Echinochloa crusgali = test system: Echinochloa crusgali
Summary of the method: (§1)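 Greenhouse pot-grown weeds were sprayed at the 2-leaf stage, 2 weeks after sowing, with compound in acetone/Tween 80 plus 1.5 L/ha methyl oleate EC, at 500, 250, 125, 60, 30 or 15 g/ha. Fresh-weight growth control was scored 15 days later on a 0–5 scale, mean of three repeats.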

Digitaria sanguinalis = test system: Digitaria sanguinalis
Summary of the method: as §1

Amaranthus retroflexus = test system: Amaranthus retroflexus
Summary of the method: as §1

Abutilon theophrasti = test system: Abutilon theophrasti
Summary of the method: as §1

Row | SMILES | weeding effect in post-emergence stage, activity level (growth control rate), Echinochloa crusgali (Echinochloa crusgali) | weeding effect in post-emergence stage, activity level (growth control rate), Digitaria sanguinalis (Digitaria sanguinalis) | weeding effect in post-emergence stage, activity level (growth control rate), Amaranthus retroflexus (Amaranthus retroflexus) | weeding effect in post-emergence stage, activity level (growth control rate), Abutilon theophrasti (Abutilon theophrasti)
1 | Cc1c(C(=O)Nc2nnnn2C)ccc(S(C)(=O)=O)c1[S@+]([O-])CC1CC1 [Compound 518] | 5 (Level 5: growth control rate is above 85%) | 5 (Level 5: growth control rate is above 85%) | 5 (Level 5: growth control rate is above 85%) | 5 (Level 5: growth control rate is above 85%)
2 | Cc1c(C(=O)Nc2nnnn2C)ccc(S(C)(=O)=O)c1[S@+]([O-])CCF [Compound 519] | 5 (Level 5: growth control rate is above 85%) | 5 (Level 5: growth control rate is above 85%) | 5 (Level 5: growth control rate is above 85%) | 5 (Level 5: growth control rate is above 85%)
3 | Cc1c(C(=O)Nc2nnnn2C)ccc(S(C)(=O)=O)c1[S@+]([O-])CC(F)(F)F [Compound 520] | 5 (Level 5: growth control rate is above 85%) | 5 (Level 5: growth control rate is above 85%) | 5 (Level 5: growth control rate is above 85%) | 5 (Level 5: growth control rate is above 85%)
4 | Cc1c(C(=O)Nc2nnnn2C)ccc(S(C)(=O)=O)c1[S@+]([O-])CC(C)F (stereo partly shown) [Compound 521] | 5 (Level 5: growth control rate is above 85%) | 5 (Level 5: growth control rate is above 85%) | 5 (Level 5: growth control rate is above 85%) | 5 (Level 5: growth control rate is above 85%)
5 | Cc1c(C(=O)Nc2nnnn2C)ccc(S(C)(=O)=O)c1[S@+]([O-])CC(F)F [Compound 522] | 5 (Level 5: growth control rate is above 85%) | 5 (Level 5: growth control rate is above 85%) | 5 (Level 5: growth control rate is above 85%) | 5 (Level 5: growth control rate is above 85%)
6 | Cc1c(C(=O)Nc2nnnn2C)ccc(S(C)(=O)=O)c1[S@+]([O-])CCCF [Compound 523] | 5 (Level 5: growth control rate is above 85%) | 5 (Level 5: growth control rate is above 85%) | 5 (Level 5: growth control rate is above 85%) | 5 (Level 5: growth control rate is above 85%)
7 | Cc1c(C(=O)Nc2nnnn2C)ccc(S(C)(=O)=O)c1[S@+]([O-])CCC(F)(F)F [Compound 524] | 5 (Level 5: growth control rate is above 85%) | 5 (Level 5: growth control rate is above 85%) | 5 (Level 5: growth control rate is above 85%) | 5 (Level 5: growth control rate is above 85%)
8 | Cc1c(C(=O)Nc2nnnn2C)ccc(S(C)(=O)=O)c1[S@+]([O-])CCCl [Compound 525] | 5 (Level 5: growth control rate is above 85%) | 5 (Level 5: growth control rate is above 85%) | 5 (Level 5: growth control rate is above 85%) | 5 (Level 5: growth control rate is above 85%)
9 | Cc1c(C(=O)Nc2nnnn2C)ccc(S(C)(=O)=O)c1[S@+]([O-])CCCCl [Compound 526] | 5 (Level 5: growth control rate is above 85%) | 5 (Level 5: growth control rate is above 85%) | 5 (Level 5: growth control rate is above 85%) | 5 (Level 5: growth control rate is above 85%)
10 | Cc1c(C(=O)Nc2nnnn2C)ccc(S(C)(=O)=O)c1[S@+]([O-])CC#N [Compound 527] | 5 (Level 5: growth control rate is above 85%) | 5 (Level 5: growth control rate is above 85%) | 5 (Level 5: growth control rate is above 85%) | 5 (Level 5: growth control rate is above 85%)
11 | COCC[S@@+]([O-])c1c(S(C)(=O)=O)ccc(C(=O)Nc2nnnn2C)c1C [Compound 528] | 5 (Level 5: growth control rate is above 85%) | 5 (Level 5: growth control rate is above 85%) | 5 (Level 5: growth control rate is above 85%) | 5 (Level 5: growth control rate is above 85%)
12 | CCC[S@@+]([O-])c1c(C(F)(F)F)ccc(C(=O)Nc2nnc(C)o2)c1OCOC [Compound 536] | 5 (Level 5: growth control rate is above 85%) | 5 (Level 5: growth control rate is above 85%) | 5 (Level 5: growth control rate is above 85%) | 5 (Level 5: growth control rate is above 85%)
13 | CCC[S@@+]([O-])c1c(C(F)(F)F)ccc(C(=O)Nc2nnc(C)o2)c1C [Compound 537] | 5 (Level 5: growth control rate is above 85%) | 5 (Level 5: growth control rate is above 85%) | 5 (Level 5: growth control rate is above 85%) | 5 (Level 5: growth control rate is above 85%)
14 | Cc1nnc(NC(=O)c2ccc(F)c([S@@+](C)[O-])c2F)o1 [Compound 623] | 5 (Level 5: growth control rate is above 85%) | 5 (Level 5: growth control rate is above 85%) | 5 (Level 5: growth control rate is above 85%) | –
15 | C#CCC[S@@+]([O-])c1c(S(C)(=O)=O)ccc(C(=O)Nc2nnc(C)o2)c1C [Compound 624] | 5 (Level 5: growth control rate is above 85%) | 5 (Level 5: growth control rate is above 85%) | 5 (Level 5: growth control rate is above 85%) | –
16 | Cc1nnc(NC(=O)c2ccc(S(C)(=O)=O)c([S@+]([O-])CCS(C)(=O)=O)c2C)o1 [Compound 625] | 5 (Level 5: growth control rate is above 85%) | 5 (Level 5: growth control rate is above 85%) | 5 (Level 5: growth control rate is above 85%) | –
17 | Cc1c(C(=O)Nc2nnnn2C)ccc(S(C)(=O)=O)c1[S+]([O-])CC1CCC1 (stereo not shown) [Compound 626] | 5 (Level 5: growth control rate is above 85%) | 5 (Level 5: growth control rate is above 85%) | 5 (Level 5: growth control rate is above 85%) | –
18 | Cc1nnc(NC(=O)c2ccc(S(C)(=O)=O)c([S@+]([O-])CCC(F)=C(F)F)c2C)o1 [Compound 627] | 5 (Level 5: growth control rate is above 85%) | 5 (Level 5: growth control rate is above 85%) | 5 (Level 5: growth control rate is above 85%) | –
19 | Cc1nnc(NC(=O)c2ccc(S(C)(=O)=O)c([S@+]([O-])CCCO)c2C)o1 [Compound 628] | 5 (Level 5: growth control rate is above 85%) | 5 (Level 5: growth control rate is above 85%) | 5 (Level 5: growth control rate is above 85%) | –
20 | CCn1nnnc1NC(=O)c1ccc(S(C)(=O)=O)c([S@+]([O-])CC)c1C [Compound 629] | 5 (Level 5: growth control rate is above 85%) | 5 (Level 5: growth control rate is above 85%) | 5 (Level 5: growth control rate is above 85%) | –
21 | CCC[S@@+]([O-])c1c(C(F)F)ccc(C(=O)Nc2nnnn2C)c1SC [Compound 867] | 5 (Level 5: growth control rate is above 85%) | 5 (Level 5: growth control rate is above 85%) | 5 (Level 5: growth control rate is above 85%) | –
